Results on 14 compounds are retold here after ChEMBL document CHEMBL2417393, “Structure guided optimization of a fragment hit to imidazopyridine inhibitors of PI3K” (Bioorg Med Chem Lett, 2013).

A short description of series [1]: Solubility of the compound in PBS buffer at pH 7.4. In kind it is physicochemical.
A short description of series [2]: Half life in rat microsomes. In kind it is ADME, Microsome.
The nature of series [3]: Clearance in rat microsomes. The format is ADME, Microsome.
The nature of series [4]: Apparent permeability from basolateral to apical side in human Caco2 cells. In kind it is ADME, cell-based. The conditions noted are these: Caco-2. Background: Passage across Caco-2 layers is used to estimate intestinal permeability.
Series [5] in a line: Apparent permeability from apical to basolateral side in human Caco2 cells. The format is ADME, cell-based. The conditions noted are these: Caco-2.
Series [6] is described as follows: Cmax in rat at 10 mg/kg, po. The format is ADME, organism-based. Also on record: dose 10 mg/kg, route oral. The conditions noted are these: in vivo.
Series [7] is described as follows: AUC in rat at 10 mg/kg, po. The conditions noted are these: plasma. Also on record: dose 10 mg/kg, route oral. In kind it is ADME, organism-based.
Series [8] in a line: Bioavailability in rat at 5 mg/kg, iv. In kind it is ADME, organism-based. The settings on record: in vivo.
Series [9] is described as follows: Half life in rat at 5 mg/kg, iv. The conditions noted are these: in vivo. On the set-up: dose 5 mg/kg, route intravenous. In kind it is ADME, organism-based.
Series [10] in a line: Clearance in rat at 5 mg/kg, iv. In kind it is ADME, organism-based. Also on record: dose 5 mg/kg, route intravenous. The settings on record: in vivo.
The nature of series [11]: Volume of distribution at steady state in rat at 5 mg/kg, iv. In kind it is ADME, organism-based. Also on record: dose 5 mg/kg, route intravenous. The settings on record: in vivo, read-out: Vdss.
A short description of series [12]: Lipophilicity, log D of the compound at pH 7.4. The conditions noted are these: buffer. The format is physicochemical.

Converted amounts (≈) assume the structure as drawn.

Usually solubility stands for how much of the substance goes into solution per volume. For `CC(=O)Nc1cn2cc(-c3cnc(N)c(C(F)(F)F)c3)ncc2n1`, the concentration in solution in series [1] (solubility) came to 1 µM (≈ 0.336 µg/mL).

Regarding `CC(=O)Nc1cn2cc(-c3cnc(N)c(C(F)(F)F)c3)cnc2n1`, in series [1], the solubility stood at 4.8 µM (≈ 1.61 µg/mL).

`Nc1ccc(-c2ccc3nc(NC(=O)CN4CCCCC4)sc3c2)cn1` returned a solubility in series [1] of 7.1 µM (≈ 2.61 µg/mL).

In turn, `CC(=O)Nc1ncc2cc(-c3cnc(N)c(C(F)(F)F)c3)ccc2n1` displayed a solubility in series [1] of 0.5 µM (≈ 0.174 µg/mL).

Broadly, the half-life is the time in which the quantity being followed falls by half. Low readings indicate rapid decline, high ones slow decline. Broadly, the Papp B→A is the apparent permeability from the basolateral to the apical side of a cell layer. By Papp A→B is commonly meant the apparent permeability from the apical to the basolateral side of a cell layer. For orientation: Cmax means the peak of the concentration-time curve. A word on the AUC: it is the area under the concentration-time curve, a measure of exposure. As usually defined, the bioavailability is dose-corrected exposure relative to a reference, in per cent. Low values mean little systemic uptake, high ones much systemic uptake. Regarding `CC(=O)Nc1nc2ccc(-c3ccc(N)nc3)cc2s1`, the values for the half-life in series [2] and in series [9] were 3.12 h and 2.5 h, respectively. Besides, the results for the clearance in series [3] and in [10] were 4 µL/min/mg and 1.14 L/h/kg, respectively. Moreover, in series [4], the Papp B→A stood at 420 nm/s. Also, in series [5], the Papp A→B was found to be 460 nm/s. The same compound had a Cmax in series [6] of 2.5 µM. The AUC in [7] stood at 16 µM·h. In series [8], this compound returned a bioavailability of 57%. Further, the Vd in series [11] came out at 3.6 L/kg. The solubility in [1] was 4.2 µM (≈ 1.19 µg/mL).

For the compound `CC(=O)Nc1nc2ccc(-c3cnc(N)c(C(F)(F)F)c3)cc2n1C`, in [1], the solubility came to 25 µM (≈ 8.73 µg/mL).

In series [2], `CC(=O)Nc1nc2ccc(-c3cnc(N)c(C(F)(F)F)c3)cc2s1` displayed a half-life of 13 h. In addition, in series [3], the clearance was determined as 8 µL/min/mg. The Papp B→A in series [4] was determined as 130 nm/s. The Papp A→B in series [5] stood at 160 nm/s. The Cmax in series [6] came to 2.9 µM. The same compound yielded an AUC in series [7] of 18 µM·h. The same compound yielded a solubility in series [1] of 1.5 µM (≈ 0.529 µg/mL).

Consider `CC(=O)Nc1cn2cc(-c3cnc(N)c(C(F)(F)F)c3)ccc2n1`, for which the half-life is 13 h in series [2] and 3 h in series [9]. The values for the clearance in series [3] and in series [10] were 8 µL/min/mg and 0.12 L/h/kg, respectively. Also, the Papp B→A in series [4] was found to be 400 nm/s. For the same compound, the Papp A→B in series [5] worked out at 400 nm/s. The compound further had a Cmax in series [6] of 15.7 µM. In addition, the AUC in series [7] amounted to 198 µM·h. In addition, the bioavailability in [8] was 95%. Moreover, the Vd in series [11] was found to be 0.68 L/kg.

Regarding `CC(=O)Nc1nc2ccc(-c3cnc(N)c(C(F)(F)F)c3)cc2o1`, the solubility in series [1] is 1.3 µM (≈ 0.437 µg/mL).

`Nc1ncc(-c2ccc3nc(NC(=O)CCCN4CCOCC4)sc3c2)cc1C(F)(F)F` had a solubility in [1] of 8.3 µM (≈ 3.86 µg/mL).

For orientation: logD means lipophilicity at a set pH, counting ionised and neutral species. Compound `COC(=O)c1ccc2nc(NC(C)=O)sc2c1` returned a logD in series [12] of 1.5.

`COc1cc(-c2ccc3nc(NC(C)=O)sc3c2)cnc1N`: in [4], the Papp B→A stood at 180 nm/s. In [5], the apparent permeability from apical to basolateral (Papp A→B) was 67 nm/s.

In [1], `Nc1ncc(-c2ccc3nc(NC(=O)CCCN4CCCCC4)sc3c2)cc1C(F)(F)F` gave a solubility of 56 µM (≈ 26 µg/mL).

The compound `Nc1ccc(-c2ccc3nc(NC(=O)CCCN4CCCCC4)sc3c2)cn1` had a solubility in [1] of 28 µM (≈ 11.1 µg/mL).
